Measured values as given in patent publication US20250320496A1, “MODULATION OF ABCB11 GENE TRANSCRIPTION USING ANTISENSE OLIGONUCLEOTIDES TARGETING REGULATORY RNAS” (CAMP4 Therapeutics Corporation, priority 2022, published 2025).
Strand notation (5' to 3'): a small letter for the sugar, then the base; units joined by * are phosphorothioate-linked, units joined directly phosphodiester-linked; [ ] holds rarer units or linkages, { } end groups; capitals alone tell only the bases. e = 2'-O-(2-methoxyethyl) (MOE); l = locked nucleic acid (LNA); [5mC] = 5-methylcytosine; d = 2'-deoxy (DNA)

System: human ABCB11 mRNA
Test: ASO treatment of primary human hepatocytes (PHH), ABCB11 mRNA by RT-qPCR normalized to B2M
Assay type: cell-based
Conditions: for ABCB11 mRNA FC (5 μM ASO vs. UNT) / ABCB11 FC mRNA (5 μM ASO vs. untreated): primary human hepatocytes; for ABCB11 mRNA FC (5 μM ASO vs. UNT): normalized to untreated PHHs (UNT); for ABCB11 FC mRNA (5 μM ASO vs. untreated): 5 μM ASO with PO-modifications, normalized to untreated hepatocytes
Outline: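 Plated primary human hepatocytes were treated 4 h post-thaw with ASO (e.g., 1.25–10 μM; initial screen 5 μM) in medium containing 0.3 mg/ml Matrigel for 72 hrs. Total RNA was reverse-transcribed and ABCB11 mRNA measured by Taqman RT-qPCR, normalized to B2M, with fold change versus untreated PHHs.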

Substance	ABCB11 mRNA FC (5 μM ASO vs. UNT) [fold change]	other results
CO-4504 (antisense eG*eT*eG*eT*e[5mC]*eT*eA*eT*eT*eT*eG*eG*eT*eA*eT*e[5mC]*eA*eG*eA*e[5mC])	1.232	
CO-3974: ASO targeting the paRNA regRNA RR63 (antisense eT*e[5mC]*eT*eG*eG*eA*eA*eA*eA*eT*eA*eA*eT*eG*e[5mC]*e[5mC]*eT*eT*eT*e[5mC])	1.2	upregulation of ABCB11 mRNA (PHHs, Day 3, normalized to untreated PHHs): approximately 1.5 fold
CO-3997 (antisense eG*e[5mC]*eT*eG*eT*eG*e[5mC]*eT*e[5mC]*eT*eG*eT*eA*eA*e[5mC]*eA*e[5mC]*eT*eG*eT)	1.501	
CO-6972 (antisense eA*eA*eA*eT*eG*eG*eG*eT*eG*eT*eG*eG*eA*eT*eG*eT*eA*eG*eA*eT)	1.207	
CO-7060 (eT*e[5mC]*eT*eG*lG*dA*dA*dA*lA*dT*dA*dA*lT*dG*d[5mC]*e[5mC]*lT*eT*eT*e[5mC]; antisense)	1.17	
CO-11208 (antisense eT*eG*eTeT*eTeT*eGe[5mC]*eTeT*eGeG*eTe[5mC]*eAeA*eGeA*eG*eG)		ABCB11 FC mRNA (5 μM ASO vs. untreated): 1.04 fold change
CO-12751 (antisense eG*eT*eG*eA*eGeG*e[5mC]*eA*eTe[5mC]*eA*eG*eGeT*eA*eA*eGeT*eT*e[5mC])		ABCB11 FC mRNA (5 μM ASO vs. untreated): 0.93 fold change
CO-11214 (antisense eG*eT*lGeG*lA*eG*l[5mC]*eAlA*eA*l[5mC]*eT*lAeG*lG*e[5mC]*lA*e[5mC]eT*eG)		ABCB11 FC mRNA (5 μM ASO vs. untreated): 2.90 fold change
CO-6999 (antisense eG*eT*lG*eA*lG*eG*l[5mC]*eA*lT*e[5mC]*lA*eG*lGeT*lA*eA*lG*eT*eT*e[5mC])	1.24	
CO-7038 (antisense eA*eA*e[5mC]*eT*eG*eT*eA*e[5mC]*eA*eT*eT*eT*eA*eG*eA*eG*eA*e[5mC]*eA*eA)	1.189	
CO-4521 (antisense eG*e[5mC]*eA*eT*eT*eT*e[5mC]*eA*eG*eA*eG*e[5mC]*eA*e[5mC]*eA*eG*eA*eG*eT*eG)	1.092	
CO-12746 (antisense eG*eT*eG*eAeGeGe[5mC]*eA*eT*e[5mC]*eA*eG*eG*eTeAeAeG*eT*eT*e[5mC])		ABCB11 FC mRNA (5 μM ASO vs. untreated): 1.09 fold change
CO-3991 (antisense eG*eG*eG*eA*eT*eG*eA*e[5mC]eT*e[5mC]*e[5mC]eT*eA*eA*eA*eA*eA*eT*eG*eG)	1.614	
CO-11201 (antisense eT*eGeTeTeTeTeG*e[5mC]*eT*eT*eG*eG*eT*e[5mC]eAeAeGeAeG*eG)		ABCB11 FC mRNA (5 μM ASO vs. untreated): 0.99 fold change
CO-4032 (antisense eA*eG*eT*e[5mC]*e[5mC]*eA*eT*eT*eA*eT*eT*eT*e[5mC]*e[5mC]*eT*e[5mC]*eT*eG*eG*e[5mC])	1.311	
CO-7164 (antisense eA*eT*eT*e[5mC]*eT*eA*e[5mC]*eA*eG*eA*eG*eG*eG*eA*eG*e[5mC]*eA*eT*eA*eA)	1.178	
CO-7161 (antisense eG*eA*eT*eG*eT*eG*eG*eA*eG*eG*eT*eG*eG*eA*eG*e[5mC]*eA*eA*eA*e[5mC])	1.324	
CO-11222 (antisense eG*eT*lG*eG*eAlGe[5mC]*eA*lA*eA*e[5mC]*lT*eA*eGlGe[5mC]*eA*l[5mC]*eT*eG)		ABCB11 FC mRNA (5 μM ASO vs. untreated): 1.79 fold change
CO-11242 (antisense eG*eTeG*eG*lAeG*e[5mC]*eAeA*lA*e[5mC]eT*eA*eGlG*e[5mC]*eAe[5mC]*eT*eG)		ABCB11 FC mRNA (5 μM ASO vs. untreated): 1.49 fold change
CO-4014 (antisense eG*eA*eT*e[5mC]*eA*e[5mC]*eA*eA*eA*eT*eT*e[5mC]*eT*eA*e[5mC]*e[5mC]*e[5mC]*eT*eT*eG)	1.003	
CO-7093 (eA*e[5mC]*l[5mC]*e[5mC]*e[5mC]*l[5mC]*e[5mC]*eT*l[5mC]*eA*e[5mC]*l[5mC]*eT*eT*lG*eG*eT*lT*e[5mC]*e[5mC]; antisense)	1.269	
CO-4028 (antisense eT*eT*eA*eA*e[5mC]*eT*e[5mC]*eT*eT*eA*e[5mC]*eT*eT*eT*eG*eT*eG*eG*eA*eG)	1.418	
CO-3995 (antisense eG*eT*e[5mC]*eT*eA*eG*eG*eA*eG*e[5mC]*eT*eT*e[5mC]*eT*eG*eT*eT*eT*eA*e[5mC])	1.683	

Substance	ABCB11 mRNA FC (5 μM ASO vs. UNT) [fold change]	other results
CO-7106 (eA*e[5mC]*eA*eT*eT*eT*dA*dG*dA*dG*dA*d[5mC]*dA*dA*dA*dG*eA*eA*eT*e[5mC]*eG*e[5mC]; antisense)	1.246	
CO-6995 (antisense eG*eT*eG*eA*eG*lG*d[5mC]*dA*lT*d[5mC]*dA*lG*dG*dT*lA*eA*eG*eT*eT*e[5mC])	1.277	
CO-7182: derivative ASO with additional chemical modifications based on parent ASO CO-4529 (antisense eG*eT*eG*lG*eA*eG*e[5mC]*lA*eA*eA*e[5mC]*lT*eA*eG*eG*l[5mC]*eA*e[5mC]*eT*eG)	1.572	
CO-7114 (eG*eT*eG*eT*eT*eT*dT*dG*d[5mC]*dT*dT*dG*dG*dT*d[5mC]*dA*eA*eG*eA*eG*eG*eA; antisense)	1.47	
CO-4015 (antisense eG*eT*eT*eT*eG*e[5mC]*eT*e[5mC]*eT*eG*eA*eT*eA*eA*eT*e[5mC]*eA*e[5mC]*eA*eG)	1.043	
CO-4024 (antisense eA*e[5mC]*eT*eT*eA*e[5mC]*eA*eG*eG*eA*eT*eG*e[5mC]*eA*eT*eT*eA*eA*eT*eG)	0.997	
CO-4013 (antisense eT*eT*eG*eA*eA*eA*eG*e[5mC]*eT*eG*eG*eT*eT*eT*eA*eA*eT*eG*e[5mC]*eA)	1.166	
CO-7020 (antisense eA*eA*eG*eT*eG*dA*dG*lG*d[5mC]*dA*lT*d[5mC]*dA*lG*dG*dT*lA*dA*dG*eT*eT*e[5mC]*e[5mC]*eT)	1.133	
CO-4062 (antisense eG*eA*e[5mC]*e[5mC]*eA*eA*eT*eG*eT*eT*eG*e[5mC]*e[5mC]*eT*eA*eT*eT*eA*eT*eT)	1.108	
CO-7190: derivative ASO with additional chemical modifications based on parent ASO CO-4535 (antisense eT*eG*lG*e[5mC]*eG*lT*eT*eA*lT*eT*eA*lA*eT*eT*l[5mC]*eT*eA*l[5mC]*eA*eG)	1.641	
CO-4040 (antisense eG*eT*eT*eT*e[5mC]*e[5mC]*e[5mC]*eA*eA*eG*e[5mC]*eA*e[5mC]*eA*e[5mC]*eT*e[5mC]*eT*eG*eT)	0.921	
CO-4030 (antisense eT*e[5mC]*eA*e[5mC]*eA*eG*eGeT*eA*eA*eG*eT*eA*eA*e[5mC]*eT*eT*eA*eT*eA)	1.106	
CO-4495 (antisense eT*eG*eG*eT*eA*eT*e[5mC]*e[5mC]*eA*eT*eT*e[5mC]*eA*e[5mC]*eA*eA*eG*eG*eT*eG)	1.07	
CO-4033 (antisense eG*eA*eA*eA*e[5mC]*e[5mC]*eT*eT*eT*eT*eA*eA*e[5mC]*eT*e[5mC]*eT*e[5mC]*e[5mC]*eA*e[5mC])	1.472	
CO-6971 (antisense eA*eT*eG*eG*eG*eT*eG*eT*eG*eG*eA*eT*eG*eT*eA*eG*eA*eT*eG*eA)	1.091	
CO-7053 (antisense e[5mC]*e[5mC]*eT*e[5mC]*eA*e[5mC]*e[5mC]*eT*eT*eG*eG*eT*eT*e[5mC]*e[5mC]*e[5mC]*e[5mC]*e[5mC]*eT*eG)	1.145	
CO-7180: derivative ASO with additional chemical modifications based on parent ASO CO-4529 (antisense eG*eT*lG*eG*eA*lG*e[5mC]*eA*lA*eA*e[5mC]*lT*eA*eG*lG*e[5mC]*eA*l[5mC]*eT*eG)	2.04	
CO-4487 (antisense eG*e[5mC]*eA*eA*eG*eG*eT*e[5mC]*e[5mC]*eA*eG*eG*eG*eT*eG*eT*eA*eT*eT*e[5mC])	1.052	
CO-6670 (antisense eT*eA*eG*eT*eT*eT*eA*eG*eT*eT*eG*eA*e[5mC]*eT*eG*e[5mC]*eA*eG*eA*eG)	1.157	
CO-7169 (antisense eT*eT*eA*eT*eT*eT*eG*eG*e[5mC]*eG*eT*eT*eA*eT*eT*eA*eA*eT*eT*e[5mC])	1.289	
CO-7019 (antisense eA*eA*eG*eT*eG*dA*dG*eG*d[5mC]*dA*eT*d[5mC]*dA*eG*dG*dT*eA*dA*dG*eT*eT*e[5mC]*e[5mC]*eT)	1.284	
CO-6984 (antisense eT*eG*eA*eG*eG*eT*e[5mC]*eT*eA*eA*eT*eT*eT*eA*eG*eA*eA*eG*eA*e[5mC])	1.127	
